Values of other authors, collected in patent publication US11377445B2, “Derivatives of paliperidone and process for the preparation thereof” (Zenvision Pharma LLP, priority 2018, dated 2022).

Cc1nc2n(c(=O)c1CCN1CCC(c3noc4cc(F)ccc34)CC1)CCCC2O (racemic) [Paliperidone, (±)-3-[2-[4-(6-fluoro-1,2-benzisoxazol-3-yl)-1-piperidinyl]ethyl]-6,7,8,9-tetrahydro-9-hydroxy-2-methyl-4Hpyrido[1,2-a]pyrimidin-4-one]
solubility in 0.1N HCl (0.1N HCl): sparingly soluble | solubility in 0.1N NaOH (0.1N NaOH): practically insoluble | solubility in N, N-dimethylformamide (N, N-dimethylformamide): slightly soluble | solubility in hexane (hexane): practically insoluble | solubility in methylene chloride (methylene chloride): sparingly soluble | solubility in water (water): practically insoluble

CCCCCCCCCCCCCCCC(=O)OC1CCCn2c1nc(C)c(CCN1CCC(c3noc4cc(F)ccc34)CC1)c2=O (centres unmarked) [Paliperidone palmitate]
solubility in ethanol (ethanol): very slightly soluble | solubility in ethyl acetate (ethyl acetate): slightly soluble | solubility in methanol (methanol): very slightly soluble | solubility in polyethylene glycol 400 (polyethylene glycol 400): practically insoluble | solubility in propylene glycol (propylene glycol): practically insoluble
